Patent US12172995B2, “Substituted indole and indazole compounds” (BRISTOL-MYERS SQUIBB COMPANY, priority 2018, dated 2024)

Experiments:
Assay type in all cases: cell-based
human TLR7 = molecular target: T1, human TLR7 (Homo sapiens, UniProt Q9NYK1); test: TLR7 inhibition reporter assay (HEK-Blue SEAP); conditions: HEK-Blue cells overexpressing human TLR7, stimulated with gardiquimod 7.5 μM, 22 hour incubation
T1 construct: host or cells: HEK-Blue cells
T1 sequence (Q9NYK1 27-1049): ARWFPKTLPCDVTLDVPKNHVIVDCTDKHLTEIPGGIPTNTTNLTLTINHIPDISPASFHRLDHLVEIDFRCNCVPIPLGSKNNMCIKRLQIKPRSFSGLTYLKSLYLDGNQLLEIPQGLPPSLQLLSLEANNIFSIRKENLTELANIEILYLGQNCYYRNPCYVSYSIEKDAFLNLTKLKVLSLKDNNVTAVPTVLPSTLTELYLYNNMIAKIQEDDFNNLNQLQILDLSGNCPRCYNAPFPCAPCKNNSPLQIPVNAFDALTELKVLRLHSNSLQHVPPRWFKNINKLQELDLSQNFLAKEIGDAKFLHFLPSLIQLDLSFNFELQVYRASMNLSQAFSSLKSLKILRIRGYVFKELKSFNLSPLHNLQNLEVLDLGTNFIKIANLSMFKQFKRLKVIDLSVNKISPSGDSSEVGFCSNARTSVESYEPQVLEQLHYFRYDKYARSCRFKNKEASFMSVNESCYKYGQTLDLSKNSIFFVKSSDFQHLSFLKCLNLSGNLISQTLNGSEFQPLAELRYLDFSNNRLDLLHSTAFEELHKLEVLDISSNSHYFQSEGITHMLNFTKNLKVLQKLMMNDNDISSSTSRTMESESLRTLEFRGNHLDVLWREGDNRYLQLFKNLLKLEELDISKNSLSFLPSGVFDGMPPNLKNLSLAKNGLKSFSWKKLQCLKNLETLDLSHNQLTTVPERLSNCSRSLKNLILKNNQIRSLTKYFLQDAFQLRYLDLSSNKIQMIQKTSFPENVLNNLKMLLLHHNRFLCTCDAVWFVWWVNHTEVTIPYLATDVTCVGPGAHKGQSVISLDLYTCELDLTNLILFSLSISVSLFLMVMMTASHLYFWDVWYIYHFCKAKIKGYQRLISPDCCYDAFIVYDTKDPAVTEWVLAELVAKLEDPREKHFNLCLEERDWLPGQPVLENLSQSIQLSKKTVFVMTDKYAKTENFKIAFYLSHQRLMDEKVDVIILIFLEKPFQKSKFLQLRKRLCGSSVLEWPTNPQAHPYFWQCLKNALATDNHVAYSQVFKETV
Protocol: (§1) TLR7/8/9 Inhibition Reporter Assays
(§2) HEK-Blue™-cells (Invivogen) overexpressing human TLR7, TLR8 or TLR9 receptors were used for screening inhibitors of these receptors using an inducible SEAP (secreted embryonic alkaline phosphatase) reporter gene under the control of the IFN-β minimal promoter fused to five NF-κB and AP-1-binding sites. Briefly, cells are seeded into Greiner 384 well plates (15000 cells per well for TLR7, 20,000 for TLR8 and 25,000 for TLR9) and then treated with test compounds in DMSO to yield a final dose response concentration range of 0.05 nM to 50 μM. After a 30 minute compound pre-treatment at room temperature, the cells are then stimulated with a TLR7 ligand (gardiquimod at a final concentration of 7.5 μM), TLR8 ligand (R848 at a final concentration of 15.9 μM) or TLR9 ligand (ODN2006 at a final concentration of 5 nM) to activate NF-κB and AP-1 which induce the production of SEAP. After a 22 hour incubation at 37° C., 5% CO2, SEAP levels are determined with the addition of HEK-Blue™ Detection reagent (Invivogen), a cell culture medium that allows for detection of SEAP, according to manufacturer's specifications. The percent inhibition is determined as the % reduction in the HEK-Blue signal present in wells treated with agonist plus DMSO alone compared to wells treated with a known inhibitor.

human TLR9 = molecular target: T2, human TLR9 (Homo sapiens, UniProt Q9NR96); test: TLR9 inhibition reporter assay (HEK-Blue SEAP); conditions: HEK-Blue cells overexpressing human TLR9, stimulated with ODN2006 5 nM, 22 hour incubation
T2 construct: host or cells: HEK-Blue cells
T2 sequence (Q9NR96 26-1032): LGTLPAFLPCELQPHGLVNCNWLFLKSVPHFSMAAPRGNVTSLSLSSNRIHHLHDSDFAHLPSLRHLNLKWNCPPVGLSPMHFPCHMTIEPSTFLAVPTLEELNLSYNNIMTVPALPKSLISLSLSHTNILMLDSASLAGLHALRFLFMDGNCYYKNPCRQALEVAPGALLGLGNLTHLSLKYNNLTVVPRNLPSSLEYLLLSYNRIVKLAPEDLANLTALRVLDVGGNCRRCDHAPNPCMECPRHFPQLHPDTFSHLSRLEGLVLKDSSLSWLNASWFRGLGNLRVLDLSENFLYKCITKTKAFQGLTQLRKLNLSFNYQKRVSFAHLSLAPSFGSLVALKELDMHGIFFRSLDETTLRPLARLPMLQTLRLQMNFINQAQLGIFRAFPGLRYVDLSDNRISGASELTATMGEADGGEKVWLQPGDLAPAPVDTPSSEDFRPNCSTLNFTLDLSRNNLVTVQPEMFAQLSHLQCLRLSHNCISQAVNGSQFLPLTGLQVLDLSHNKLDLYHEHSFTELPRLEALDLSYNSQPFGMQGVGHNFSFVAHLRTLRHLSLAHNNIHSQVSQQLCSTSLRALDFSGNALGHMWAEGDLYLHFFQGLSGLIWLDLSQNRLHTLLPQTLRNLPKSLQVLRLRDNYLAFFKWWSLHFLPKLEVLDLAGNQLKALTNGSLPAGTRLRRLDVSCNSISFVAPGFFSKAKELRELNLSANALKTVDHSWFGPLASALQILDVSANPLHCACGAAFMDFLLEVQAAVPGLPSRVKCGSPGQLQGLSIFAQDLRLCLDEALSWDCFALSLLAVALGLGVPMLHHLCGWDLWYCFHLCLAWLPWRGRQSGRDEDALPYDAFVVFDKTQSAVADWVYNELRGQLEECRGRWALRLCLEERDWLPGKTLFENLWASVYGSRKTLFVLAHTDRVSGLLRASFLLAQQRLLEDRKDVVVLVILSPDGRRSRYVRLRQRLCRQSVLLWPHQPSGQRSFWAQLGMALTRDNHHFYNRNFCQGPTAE
Protocol: as §1, §2

human TLR8 = molecular target: T3, human TLR8 (Homo sapiens, UniProt Q9NR97); test: TLR8 inhibition reporter assay (HEK-Blue SEAP); conditions: HEK-Blue cells overexpressing human TLR8, stimulated with R848 15.9 μM, 22 hour incubation
T3 construct: host or cells: HEK-Blue cells
T3 sequence (Q9NR97 27-1041): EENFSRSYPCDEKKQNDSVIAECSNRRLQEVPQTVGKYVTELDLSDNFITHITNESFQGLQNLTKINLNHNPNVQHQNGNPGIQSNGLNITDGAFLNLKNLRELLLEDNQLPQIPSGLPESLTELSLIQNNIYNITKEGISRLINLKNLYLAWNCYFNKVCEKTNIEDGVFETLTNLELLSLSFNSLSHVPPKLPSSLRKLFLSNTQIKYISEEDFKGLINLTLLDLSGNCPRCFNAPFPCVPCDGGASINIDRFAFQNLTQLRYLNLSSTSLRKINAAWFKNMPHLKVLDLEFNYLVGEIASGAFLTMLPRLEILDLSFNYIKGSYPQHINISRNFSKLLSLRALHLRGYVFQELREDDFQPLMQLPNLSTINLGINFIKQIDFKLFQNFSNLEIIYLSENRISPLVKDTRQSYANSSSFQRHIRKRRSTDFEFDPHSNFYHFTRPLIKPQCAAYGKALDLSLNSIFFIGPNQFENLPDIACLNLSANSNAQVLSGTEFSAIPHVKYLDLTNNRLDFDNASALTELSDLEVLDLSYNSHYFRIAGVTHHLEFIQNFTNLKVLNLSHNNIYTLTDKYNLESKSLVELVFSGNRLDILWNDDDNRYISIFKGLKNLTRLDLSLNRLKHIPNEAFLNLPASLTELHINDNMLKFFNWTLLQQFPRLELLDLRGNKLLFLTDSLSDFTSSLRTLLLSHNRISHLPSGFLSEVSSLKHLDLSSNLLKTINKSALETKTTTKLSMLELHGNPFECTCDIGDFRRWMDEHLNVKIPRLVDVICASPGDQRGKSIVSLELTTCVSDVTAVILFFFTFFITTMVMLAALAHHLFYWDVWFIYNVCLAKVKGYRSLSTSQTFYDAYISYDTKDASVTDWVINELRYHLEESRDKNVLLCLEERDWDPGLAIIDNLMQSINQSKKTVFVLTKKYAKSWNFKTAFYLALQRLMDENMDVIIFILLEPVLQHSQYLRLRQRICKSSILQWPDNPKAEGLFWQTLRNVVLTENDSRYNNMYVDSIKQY
Protocol: as §1, §2

Row | Structure (SMILES) | IC50 (human TLR7) [nM] | IC50 (human TLR9) [nM] | IC50 (human TLR8) [nM]
1 | COc1cc(-c2cc3[nH]nc(C4CCC(N5CC(OC)C5)CC4)c3cc2C(C)C)cn2ncnc12 (single isomer, unassigned) [Example 147, 6-(5-isopropyl-3-(4-(3-methoxyazetidin-1-yl)cyclohexyl)-1H-indazol-6-yl)-8-methoxy-[1,2,4]triazolo[1,5-a]pyridine] | 0.4 | 13100 | 0.2
2 | Cc1cc2c(C3CCC(NC(C)C)CC3)n[nH]c2cc1-c1cc(C)c2ncnn2c1 (single isomer, unassigned) [Example 38, N-isopropyl-4-(5-methyl-6-(8-methyl-[1,2,4]triazolo[1,5-a]pyridin-6-yl)-1H-indazol-3-yl)cyclohexan-1-amine] | 6 | ≥ 50000 | 0.1
3 | Cc1cc(-c2cc(C)c3ncnn3c2)cc2[nH]nc(C3CCNCC3)c12 [Example 27, 8-methyl-6-(4-methyl-3-(piperidin-4-yl)-1H-indazol-6-yl)-[1,2,4]triazolo[1,5-a]pyridine] | 6.6 | 650 | 25.9
4 | Cc1cc2c(C3CC(N(C)C)C3)n[nH]c2cc1-c1cc(C)c2ncnn2c1 (single isomer, unassigned) [Example 6, N,N-dimethyl-3-(5-methyl-6-(8-methyl-[1,2,4]triazolo[1,5-a]pyridin-6-yl)-1H-indazol-3-yl)cyclobutan-1-amine] | 9.3 | 3210 | 0.3
5 | Cc1cc(-c2cc3[nH]nc(C4CCC(N(C)C)CC4)c3cc2C(C)C)cn2ncnc12 (stereo not drawn) [Example 115, 4-(5-isopropyl-6-(8-methyl-[1,2,4]triazolo[1,5-a]pyridin-6-yl)-1H-indazol-3-yl)-N,N-dimethylcyclohexan-1-amine] | 0.6 | 6700 | 0.1
6 | CCc1cc(-c2cc(C)c3ncnn3c2)cc2[nH]nc(C3CCNCC3)c12 [Example 109, 6-(4-ethyl-3-(piperidin-4-yl)-1H-indazol-6-yl)-8-methyl-[1,2,4]triazolo[1,5-a]pyridine] | 2 | 1630 | 2.6
7 | Cc1cc(-c2cc3[nH]nc(C4CCC(N5CC(C)(C)C5)CC4)c3cc2C(C)C)cn2ncnc12 (single isomer, unassigned) [Example 137, 6-(3-(4-(3,3-dimethylazetidin-1-yl)cyclohexyl)-5-isopropyl-1H-indazol-6-yl)-8-methyl-[1,2,4]triazolo[1,5-a]pyridine] | 5.5 | 8680 | 0.6

The remaining compounds from weak to strong by IC50 (human TLR7), led by results:

Row | IC50 (human TLR7) [nM] | IC50 (human TLR9) [nM] | IC50 (human TLR8) [nM] | Structure (SMILES)
8 | 263 | 2240 | 10.4 | Cc1cc2c(C3CCNCC3)n[nH]c2cc1-c1cc(C)c(=O)n(C)c1 [Example 25, 1,3-dimethyl-5-(5-methyl-3-(piperidin-4-yl)-1H-indazol-6-yl)pyridin-2(1H)-one]
9 | 11 | 12200 | 0.9 | CCc1cc2c(C3CCN(C(=O)CCN(C)C)CC3)n[nH]c2cc1-c1cc(C)c2ncnn2c1 [Example 103, 3-(dimethylamino)-1-(4-(5-ethyl-6-(8-methyl-[1,2,4]triazolo[1,5-a]pyridin-6-yl)-1H-indazol-3-yl)piperidin-1-yl)propan-1-one]
10 | 3.3 | 1420 | 35.2 | Cc1cc(-c2cc(C)c3ncnn3c2)cc2[nH]cc(C3CCNCC3)c12 [Example 16, 8-methyl-6-(4-methyl-3-(piperidin-4-yl)-1H-indol-6-yl)-[1,2,4]triazolo[1,5-a]pyridine]
11 | 2.4 | 3860 | 1.8 | CCc1cc(-c2cc(C)c3ncnn3c2)cc2[nH]nc(C3CCN(C(=O)CN(C)C)CC3)c12 [Example 110, 2-(dimethylamino)-1-(4-(4-ethyl-6-(8-methyl-[1,2,4]triazolo[1,5-a]pyridin-6-yl)-1H-indazol-3-yl)piperidin-1-yl)ethan-1-one]
12 | 1.1 | 7450 | 0.6 | Cc1cc(-c2cc3[nH]nc(C4CCC(N5CC(C)(O)C5)CC4)c3cc2C(C)C)cn2ncnc12 (stereo not drawn) [Example 153, 1-(4-(5-isopropyl-6-(8-methyl-[1,2,4]triazolo[1,5-a]pyridin-6-yl)-1H-indazol-3-yl)cyclohexyl)-3-methylazetidin-3-01]
